Experimental data taken from publication PMC5200956 (ChemMedChem, 2016).
Read-outs that look alike come from different tables or passages of the source.

Key:
[1] = Cytotoxicity for Vero cells; format: cell-based; conditions: African green monkey
T. cruzi (amastigotes) [2] = assay: T. cruzi amastigote growth assay; format: cell-based, Trypanosoma cruzi; conditions: for EC50: read-out: T. cruzi growth EC50, intracellular amastigotes, means ± SD, n = 3; for antiparasitic activity against T. cruzi (in words): amastigotes
T. gondii (tachyzoites) [3] = assay: T. gondii tachyzoites growth assay; format: cell-based, Toxoplasma gondii; conditions: means ± SD, n = 3
TcFPPS = target: T1, TcFPPS (Trypanosoma cruzi, UniProt Q8WS26); assay: TcFPPS enzyme inhibition; format: biochemical; conditions: read-out: TcFPPS IC50; means ± SD, n = 3
T1 sequence (Q8WS26 1-425): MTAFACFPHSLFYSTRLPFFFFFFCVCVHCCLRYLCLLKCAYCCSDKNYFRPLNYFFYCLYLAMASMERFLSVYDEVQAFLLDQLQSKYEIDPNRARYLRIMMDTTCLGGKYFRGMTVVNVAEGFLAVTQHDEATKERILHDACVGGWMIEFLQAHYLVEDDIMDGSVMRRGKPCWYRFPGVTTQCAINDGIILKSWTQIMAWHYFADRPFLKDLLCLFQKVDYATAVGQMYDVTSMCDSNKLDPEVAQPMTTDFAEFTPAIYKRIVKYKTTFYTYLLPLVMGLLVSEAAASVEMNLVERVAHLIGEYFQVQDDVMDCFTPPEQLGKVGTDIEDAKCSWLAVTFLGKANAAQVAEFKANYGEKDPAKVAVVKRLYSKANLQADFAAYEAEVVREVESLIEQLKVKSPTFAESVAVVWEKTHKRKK

HhFPPS = target: T2, HhFPPS (Homo sapiens, UniProt P14324); assay: HhFPPS enzyme inhibition; format: biochemical; conditions: read-out: HhFPPS IC50; means ± SD, n = 3
T2 sequence (P14324 67-419 limits assumed): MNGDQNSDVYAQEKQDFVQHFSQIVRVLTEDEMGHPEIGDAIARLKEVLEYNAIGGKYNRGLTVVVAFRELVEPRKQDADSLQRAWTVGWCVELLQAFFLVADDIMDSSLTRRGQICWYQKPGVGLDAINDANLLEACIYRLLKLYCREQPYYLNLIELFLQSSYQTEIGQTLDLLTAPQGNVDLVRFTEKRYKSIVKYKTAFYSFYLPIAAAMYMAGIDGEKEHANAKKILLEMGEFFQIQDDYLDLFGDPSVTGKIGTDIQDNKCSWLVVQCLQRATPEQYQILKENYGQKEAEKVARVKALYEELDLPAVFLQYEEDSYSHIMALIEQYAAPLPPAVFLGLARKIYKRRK

TgFPPS = TgFPPS enzyme inhibition; format: biochemical, Toxoplasma gondii; conditions: read-out: TgFPPS IC50; means ± SD, n = 3
[4] = system: T. cruzi squalene synthase (TcSQS); conditions: cited from earlier work; for IC50: read-out: TcSQS IC50, enzymatic activity of TcSQS
T. gondii (tachyzoites) [5] = conditions: read-out: T. gondii growth EC50; cited from earlier work
T. cruzi (amastigotes) [6] = conditions: read-out: T. cruzi growth EC50; cited from earlier work
Vero cells = assay: Cytotoxicity for Vero cells; format: cell-based; conditions: read-out: Cytotoxicity EC50
[7] = Toxoplasma gondii, read-out: T. gondii growth EC50, tachyzoites
[8] = read-out: T. gondii growth EC50, tachyzoites

Structure (SMILES) | EC50 [1] [µM] | EC50 (T. cruzi (amastigotes) [2]) [µM] | EC50 (T. gondii (tachyzoites) [3]; [7]) [µM] | EC50 (T. gondii (tachyzoites) [3]; [8]) [µM] | IC50 (HhFPPS) [µM] | IC50 (TgFPPS) [µM] | antiparasitic activity against T. cruzi (in words) (T. cruzi (amastigotes) [2]) | other results
N#CSCCOc1cccc(Oc2ccc(F)cc2)c1 [Compound 22, 3-(4-Fluorophenoxy)phenoxyethyl Thiocyanate] | > 55 | 5.69 ± 0.47 | 4.9 | 4.92 ± 1.94 |  |  |  | 
O=P(O)(O)C(CNCCOc1ccccc1)P(=O)(O)O [Compound 63, 1-[(Phenoxyethylamino)ethyl]-1,1-bisphosphonic Acid] |  | > 10 |  | > 10 | > 10 | 0.18 ± 0.015 |  | IC50 (TcFPPS): 0.32 ± 0.04 µM
N#CSCCOc1ccc2ccccc2c1 [Compound 68, 2-(Naphthalen-2-yloxy)ethyl Thiocyanate] |  |  | 3.6 |  |  |  | vanishing inhibitory action | 
N#CSCCOc1ccc(Oc2ccncc2)cc1 [Compound 31, 4-(4-pyridyl)oxyphenoxyethyl Thiocyanate] | > 200 |  | 7.9 |  |  |  | free of antiparasitic activity | 
CO[C@@H]1CN(c2ccc(C#C[C@]3(O)CN4CCC3CC4)c(Cc3ccccc3)n2)C[C@@H]1O [Compound E5700] |  |  |  |  |  |  |  | type of inhibition of TcSQS [4]: mixed-type; IC50 [4]: 0.00084 µM
N#CSCCOc1ccc(Oc2ccccc2)cc1 [WC-9, 4-Phenoxyphenoxyethyl thiocyanate] |  |  |  |  |  |  |  | EC50 (T. gondii (tachyzoites) [5]): 4.8 ± 0.41 µM; EC50 (T. cruzi (amastigotes) [6]): 5 ± 1.1 µM; type of inhibition of TcSQS [4]: non-competitive
N#CSCCOc1cccc2ccccc12 [Compound 73, 2-(Naphthalen-1-yloxy)ethyl Thiocyanate] | 7.5 |  | 3.1 |  |  |  | vanishing inhibitory action | 
O=P(O)(O)C(CNCCOc1ccc(Oc2ccccc2)cc1)P(=O)(O)O [Compound 43, 1-[(4-Phenoxyphenoxyethylamino)ethyl]-1,1-bisphosphonic Acid] |  | > 10 |  | 5.9 ± 0.07 | > 10 | 0.094 ± 0.02 |  | EC50 (Vero cells): > 100 µM
N#CSCCOc1cccc(Oc2cccc(F)c2)c1 [Compound 21, 3-(3-Fluorophenoxy)phenoxyethyl Thiocyanate] | > 50 | 5.38 ± 0.82 | 1.6 | 1.63 ± 0.36 |  |  |  | 
N#CSCCOc1cccc(Oc2ccccc2F)c1 [Compound 20, 3-(2-Fluorophenoxy)phenoxyethyl Thiocyanate] | > 60 | 7.01 ± 0.51 | 3.1 | 3.12 ± 0.37 |  |  |  | 
O=P(O)(O)C(CSCCOc1ccc(Oc2ccccc2)cc1)P(=O)(O)O [Compound 48] |  | > 20 |  | > 10 | > 15 | 0.362 ± 0.002 |  | IC50 (TcFPPS): 0.8 ± 0.12 µM; EC50 (Vero cells): > 200 µM
O=P(O)(O)C(CNCCOc1cccc(Oc2ccccc2)c1)P(=O)(O)O [Compound 53, 1-[(3-Phenoxyphenoxyethylamino)ethyl]-1,1-bisphosphonic Acid] |  | > 10 |  | 2.4 ± 0.7 | > 10 | 0.04 ± 0.002 | devoid of activity | IC50 (TcFPPS): > 10 µM; EC50 (Vero cells): > 50 µM
COCCCOc1ccc(C#C[C@@]2(O)CN3CCC2CC3)c(Cc2ccccc2)n1 [ER-119884] |  |  |  |  |  |  |  | type of inhibition of TcSQS [4]: non-competitive; IC50 [4]: 0.0035 µM
N#CSCCOc1ccc(Oc2ccccc2F)cc1 [Compound 27, 4-(2-Fluorophenoxy)phenoxyethyl Thiocyanate] | > 55 |  | 4.5 | 4.54 ± 0.57 |  |  | devoid of antiparasitic activity | 
O=P(O)(O)C(CSCCOc1cccc(Oc2ccccc2)c1)P(=O)(O)O [Compound 58, 2-[3-(Phenoxy)phenoxyethylthio]ethyl-1,1-bisphosphonic Acid] |  | > 10 |  | 0.67 ± 0.23 | > 10 | 0.076 ± 0.019 | devoid of activity | EC50 (Vero cells): > 100 µM; EC50 (T. gondii (tachyzoites) [3]; read-out: T. gondii growth EC50, tachyzoites, listed as 2-[3-(phenoxy)phenoxyethylthio]ethyl-1,1-bisphosphonate): 0.7 µM
